Patent US12151991B2, “Use of a substituted thiazolidine compound as nitrification inhibitor” (BASF SE, priority 2018, dated 2024)

System: nitrification
Assay: Inhibition of nitrification in soil incubation test (ammonium and nitrate content after 14 days)
Details: 100 g soil, 10 mg ammonium sulfate-N, 20° C., 0 and 14 days; for NI* @ 1%: compound at 1% (of nitrogen N); for NI* @ 3%: compound at 3% (of nitrogen N); for NI* @ 0.3%: compound at 0.3% (of nitrogen N)
Description: The compounds of the invention have been tested as follows in terms of the inhibition of nitrification:
100 g soil is filled into 500 ml plastic bottles (e.g. soil sampled from the field) and is moistened to 50% water holding capacity. The soil is incubated at 20° C. for two weeks to activate the microbial biomass. 1 ml test solution, containing the compound in the appropriate concentration (usually 0.3 or 1% of nitrogen N), or DMSO and 10 mg nitrogen in the form of ammonium sulfate-N is added to the soil and everything mixed well. Bottles are capped but loosely to allow air exchange. The bottles are then incubated at 20° C. for 0 and 14 days.
For analysis, 300 ml of a 1% K2SO4-solution is added to the bottle containing the soil and shaken for 2 hours in a horizontal shaker at 150 rpm. Then the whole solution is filtered through a filter (Macherey-Nagel Filter MN 807%). Ammonium and nitrate content is then analyzed in the filtrate in an autoanalyzer at 550 nm (Merck, AA11).
The inhibition (NI @ a specified concentration) is calculated as follows: […]

| Structure (SMILES) | NI* @ 1% | NI* @ 3% | NI* @ 0.3% |
| --- | --- | --- | --- |
| S=C1NCCS1 [Cmpd. 1, 1,3-Thiazolidine-2-thione] | 47 | 83.5 |  |
| COc1cccc(C(=O)N2CCSC2=S)c1 [Cmpd. 2, 3-(3-Methoxybenzoyl)-2-thiazolidinethione] | 73.1 | 67.9 | 34.8 |
| O=C(Cc1ccccc1)N1CCSC1=S [Cmpd. 3, 3-(Phenylacetyl)-2-thiazolidinethione] | 55.3 | 71.1 | 26.6 |
| CC(=O)N1CCSC1=S [Cmpd. 4, 3-Acetylthiazolidine-2-thione] | 32.3 | 68.7 |  |
| O=C(c1ccc(Cl)cc1)N1CCSC1=S [Cmpd. 5, 3-(4-Chlorobenzoyl)-2-thiazolidinethione] | 30.7 | 67 |  |
| CC1(C)CSC(=S)N1 [Cmpd. 6, 4,4-Dimethyl-2-thiazolidinethione] |  | 57.5 |  |
| COc1ccc(C(=O)N2CCSC2=S)cc1 [Cmpd. 7, 3-(4-Methoxybenzoyl)-2-thiazolidinethione] | 27.5 | 57.4 | 19.8 |
| COc1ccc(C(=O)N2CCSC2=S)cc1OC [Cmpd. 8, 3-(3,4-Dimethoxybenzoyl)-2-thiazolidinethione] |  | 55 |  |
| O=C(c1cccc(Br)c1)N1CCSC1=S [Cmpd. 9, 3-(3-Bromobenzoyl)-2-thiazolidinethione] |  | 49 |  |
| O=C(c1ccccc1)N1CCSC1=S [Cmpd. 10, 3-Benzoyl-2-thiazolidinethione] |  | 48.4 |  |
| CN1CCSC1=S [Cmpd. 11, 3-Methyl-2-thiazolidinethione] |  | 39.9 |  |
| Cc1c(C(=O)N2CCSC2=S)oc2ccccc12 [Cmpd. 12, 3-[(3-Methyl-2-benzofuranyl)carbonyl]-2-thiazolidinethione] |  | 39 |  |
